Results: the supplement of paper PMC9013687

What was measured:
Danio rerio embryo [1] = test: EC50 Eye size_Decrease; conditions: exposure time: 4 dpf
Experimental: (§1)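 Zebrafish embryos (UFZ-OBI strain) were exposed from 2 hpf for 48 h (2 dpf) or 96 h (4 dpf) at 28 °C; spontaneous tail coiling was scored at 25 hpf. Morphological features from automated image analysis (FishInspector), heart rate and locomotor response were fitted with drc models. Quantal endpoints were dichotomised at 2.5 SD from controls and fitted with a log-logistic model; heart rate, pigmentation and STC were normalised to the replicate control mean. Betamethasone was tested as betamethasone dipropionate, diflorasone as diflorasone diacetate.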

Danio rerio embryo [2] = test: EC50 Eye-jaw distance_Decrease; conditions: exposure time: 4 dpf
Experimental: as §1

Danio rerio embryo [3] = conditions: exposure time: 4 dpf
Experimental: as §1

Danio rerio embryo [4] = test: EC10 Pericard size_Increase; higher = less potent
Experimental: as §1

Danio rerio embryo [5] = test: EC10 Yolk sac size_Increase; higher = less potent
Experimental: as §1

Danio rerio embryo [6] = test: EC10 Eye-jaw distance_Decrease; higher = less potent; conditions: exposure time: 4 dpf
Experimental: as §1

Danio rerio embryo [7] = test: EC50 Otolith-eye distance_Decrease; conditions: exposure time: 4 dpf
Experimental: as §1

Danio rerio embryo [8] = test: EC50 Yolk sac size_Increase
Experimental: as §1

Danio rerio embryo [9] = test: EC20 Yolk sac size_Increase; higher = less potent
Experimental: as §1

Danio rerio embryo [10] = test: EC20 Eye size_Decrease; higher = less potent; conditions: exposure time: 4 dpf
Experimental: as §1

Danio rerio embryo [11] = test: EC10 Body length_Decrease; higher = less potent; conditions: exposure time: 4 dpf
Experimental: as §1

Danio rerio embryo [12] = test: EC50 Curvature_Increase
Experimental: as §1

Danio rerio embryo [13] = test: EC10 Eye size_Decrease; higher = less potent; conditions: exposure time: 4 dpf
Experimental: as §1

Danio rerio embryo [14] = test: EC10 Bladder size_Decrease; higher = less potent; conditions: exposure time: 4 dpf
Experimental: as §1

Danio rerio embryo [15] = test: EC50 Bladder size_Decrease; conditions: exposure time: 4 dpf
Experimental: as §1

Danio rerio embryo [16] = test: spontaneous tail coiling frequency (coils/min/embryo); higher = more spontaneous movement; conditions: 25 hpf
Experimental: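 Spontaneous tail coilings of zebrafish embryos exposed from 2 hpf were recorded at 24-25 hpf in 1-min videos and detected by a KNIME workflow from grey-value variance. Betamethasone was tested as the dipropionate, diflorasone as the diacetate.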

CC1(C)O[C@@H]2[C@@H](CO[C@@]3(COS(N)(=O)=O)OC(C)(C)O[C@@H]23)O1 [Topiramate]
Conditions | EC10 Bladder size Decrease [µM] | EC10 Body length Decrease [µM] | EC10 Eye size Decrease [µM] | EC10 Eye-jaw distance Decrease [µM] | EC20 Eye size Decrease [µM] | EC50 Bladder size Decrease [µM] | EC50 Eye size Decrease [µM] | EC50 Eye-jaw distance Decrease [µM] | EC50 Heart rate [µM] | EC50 Otolith-eye distance Decrease [µM]
Danio rerio embryo [1] | – | – | – | – | – | – | 242 | – | – | –
Danio rerio embryo [2] | – | – | – | – | – | – | – | 236 | – | –
Danio rerio embryo [3] | – | – | – | – | – | – | – | – | 87.8 | –
Danio rerio embryo [6] | – | – | – | 133 | – | – | – | – | – | –
Danio rerio embryo [7] | – | – | – | – | – | – | – | – | – | 80.9
Danio rerio embryo [10] | – | – | – | – | 97.9 | – | – | – | – | –
Danio rerio embryo [11] | – | 24.1 | – | – | – | – | – | – | – | –
Danio rerio embryo [13] | – | – | 57.7 | – | – | – | – | – | – | –
Danio rerio embryo [14] | 28.2 | – | – | – | – | – | – | – | – | –
Danio rerio embryo [15] | – | – | – | – | – | 49.5 | – | – | – | –

Conditions | EC10 Pericard size Increase [µM] | EC10 Yolk sac size Increase [µM] | EC20 Yolk sac size Increase [µM] | EC50 Curvature Increase [µM] | EC50 Yolk sac size Increase [µM] | spontaneous tail coiling frequency
Danio rerio embryo [4], exposure time: 2 dpf | 11.2 | – | – | – | – | –
Danio rerio embryo [4], exposure time: 4 dpf | 210 | – | – | – | – | –
Danio rerio embryo [5], exposure time: 2 dpf | – | 601 | – | – | – | –
Danio rerio embryo [5], exposure time: 4 dpf | – | 98.8 | – | – | – | –
Danio rerio embryo [8], exposure time: 2 dpf | – | – | – | – | 990 | –
Danio rerio embryo [8], exposure time: 4 dpf | – | – | – | – | 303 | –
Danio rerio embryo [9], exposure time: 2 dpf | – | – | 722 | – | – | –
Danio rerio embryo [9], exposure time: 4 dpf | – | – | 149 | – | – | –
Danio rerio embryo [12], exposure time: 2 dpf | – | – | – | 1250 | – | –
Danio rerio embryo [12], exposure time: 4 dpf | – | – | – | 927 | – | –
Danio rerio embryo [16], 49.6 µM | – | – | – | – | – | 0.85
Danio rerio embryo [16], 81.8 µM | – | – | – | – | – | 1.99
Danio rerio embryo [16], 135 µM | – | – | – | – | – | 2.03
Danio rerio embryo [16], 222.7 µM | – | – | – | – | – | 0.24
Danio rerio embryo [16], 367.5 µM | – | – | – | – | – | 1.31
Danio rerio embryo [16], 606.3 µM | – | – | – | – | – | 2.44
Danio rerio embryo [16], 1000 µM | – | – | – | – | – | 1.46
Danio rerio embryo [16], 1000.4 µM | – | – | – | – | – | 2.49
